Measured values as given in patent US20130011376A1, “Methods for Enhancing Natural Killer Cell Proliferation and Activity” (GAMIDA CELL LTD., priority 2009, published 2013).

How the values were obtained:
[1] = tested on: cord-blood derived NK cells; assay: Expression of CXCR4, CD49e and CD62L receptors on cultured cord blood NK cells (FACS); assay type: cell-based, human; conditions: 2.5 or 5 mM nicotinamide, three weeks, vs cytokines only
Procedure: 2. Purified CD56+ or CD56+CD3− cells from total nuclear or mononuclear cells or from the fraction depleted from CD34+ or CD133+ cells were cultured in culture bags, T-Flasks or 24 well plates at a concentration of 1-100×10^4 cells/ml in MEMα/10% FCS or CellGro SCGM (Cell Genix)/5% Human Serum/LiforCell® FBS Replacement (Lifeblood Products) containing the following human recombinant cytokines:, interleukin-2 (IL-2) (5-50 ng/ml), interleukin-15 (IL-15), FLT-3 or SCF or FLT3 and SCF or IL-2 and IL-15 or IL-2 only (Perpo Tech, Inc., Rocky Hill, N.J., USA), with or without nicotinamide, and incubated at 37° C. in a humidified atmosphere of 5% CO2 in air. The cultures were topped up once or twice a week with the same volume of fresh medium containing growth factors with or without nicotinamide. Eventually cultures can be supplemented once or several times a week with IL-2 and or IL-2 and IL-15. To estimate the number of cells in culture, cell samples were stained with trypan blue for counting. At various time points, samples were taken for FACS analysis to assay the relative fractions of NK cells, CD56+CD3−, CD56+CD3+, CD34+CD56+, CD56+CD16+ and/or CD56+ NKG2A cells.
The cells were washed with a PBS solution containing 1% BSA, and stained (at 4° C. for 30 min) with fluorescein isothiocyanate (FITC)- or phycoerythrin (PE)-conjugated antibodies or allophycocyanin (APC). The cells were then washed in the above buffer and analyzed using a FACScalibur® flow cytometer (Becton Dickinson, San Jose, Calif., USA). The cells were passed at a rate of up to 1000 cells/second, using a 488 nm or 661 nm argon laser beam as the light source for excitation. Emission of 10^4 cells was measured using logarithmic amplification, and analyzed using the CellQuest software (Becton Dickinson). Cells stained with FITC, PE and APC-conjugated isotype control antibodies were used to determine background fluorescence.

[2] = tested on: T-cell depleted (CD3 or CD3/CD19 depleted) peripheral blood NK cell populations; assay: CD62L expression on T-cell depleted peripheral blood NK cell cultures (FACS); assay type: cell-based, human; conditions: 2.5 and 5.0 mM nicotinamide, after 7, 14 and 21 days in culture
Procedure: For depletion procedure, total nuclear cells from umbilical cord blood (CB), bone marrow (BM) or peripheral blood (PB) cells were layered on a Ficoll-Hypaque gradient (1.077 g/mL; Sigma), and centrifuged at 800×g for 30 minutes for separation of the mononuclear cells. The cells in the interface layer were collected and washed three times in phosphate-buffered saline (PBS) (Biological Industries, Israel) containing 0.5% HSA. Optionally, cells are not separated on the Ficoll-Hypaque gradient but washed three times in phosphate-buffered saline (PBS) (Biological Industries) containing 0.5% HSA (“total mononuclear fraction”). […] After negative depletion the cells were counted and characterized by FACS analysis.
3. […] To estimate number of cells in culture, cell samples were counted following staining with trypan blue. […]
The cells were washed with a PBS solution containing 1% BSA, and stained (at 4° C. for 30 min) with fluorescein isothiocyanate (FITC)- or phycoerythrin (PE)-conjugated antibodies or allophycocyanin (APC). The cells were then washed in the above buffer and analyzed using a FACScalibur® flow cytometer (Becton Dickinson, San Jose, Calif., USA). […] Emission of 10^4 cells was measured using logarithmic amplification, and analyzed using the CellQuest software (Becton Dickinson). […]

[3] = tested on: peripheral blood-derived, immunobeads-purified CD56+ cells; assay: Assay of CD62L expression on NK cell surface, purified peripheral blood CD56+ cells; assay type: cell-based, human; conditions: 2.5-7.5 mM nicotinamide, 3 weeks in culture
Procedure: Cultures were initiated with peripheral-blood-derived CD56+ cells purified with immunomagnetic beads and activated with cytokines (including IL-2 and IL-15) with or without nicotinamide (2.5, 5 and 7.5 mM). NK cells were stained with specific antibodies for the specified surface markers (e.g., CD62L) before activation in culture and after 3 weeks incubation with nicotinamide, and then monitored by FACS.

[4] = tested on: colo205 colorectal adenocarcinoma cell line; assay type: cell-based; conditions: 5 mM nicotinamide, all E:T ratios tested (1:1 to 10:1)

With NC(=O)c1cccnc1 [nicotinamide] the “expression of CD49e (adhesion receptor)” value [1] was “elevated expression”, the “expression of CD62L (trafficking receptor)” value [1] was “strongly enhanced expression” and the “expression of CXCR4 (migratory receptor)” value [1] was “strongly enhanced expression”. For the same compound, the “CD62L-positive cells among the NK cells” value [2] was “increased percentage”, the “expression of CD62L following activation in culture with IL-2” value [3] was “remarkable increase” and the “cytotoxic potential towards solid tumor cells” value [4] was “increased killing potential”.
